Structures are written as SMILES.

One experiment deals with natural bacteria. As to the kind of experiment: hand and forearm rub test, effect on natural bacteria of the skin (Handrub procedure PN-EN 12791:2005). Format: in vivo. The following applies: hands of 20 subjects.
Another experiment deals with Escherichia coli. The experiment can be described thus: hand disinfection test, transient bacteria on hands of subjects (Handrub procedure PN-EN 1500:2013-07). The following applies: 18 subjects, E. coli on hands, hand rub. Format: in vivo.

Protocol for Escherichia coli: Tests were performed on the hands of healthy subjects to determine the transient bacteria killing effect of the disclosed compositions. The subjects washed their hands, and dipped their fingertips into Escherichia coli. The disclosed compositions were applied to the subjects' hands by rubbing the disclosed compositions into the skin to stimulate the removal of the transient bacteria on the skin. The same test was performed using prior art alcohol compositions.
Tests were performed on the hands of healthy subjects to determine the transient bacteria killing effect of the disclosed compositions.
In this experiment, 18 subjects washed their hands, and dipped their fingertips into a solution of Escherichia coli. Once the subjects' hands were dry, aliquots of the disclosed composition (5 mL of 160 ppm HOCl, 0.13% Hac) were applied to the subjects' dry hands and rubbed into the skin for 30 to stimulate the removal of the transient bacteria on the skin, according to Handrub procedure PN-EN 1500:2013-07.
Protocol for natural bacteria: In another experiment aliquots of the disclosed composition (3 mL of 0.03% HOCl, 0.13% Hac) were applied to each of the hands of 20 subjects. […] The composition was rubbed into the hands and forearms for 5 minutes to maintain exposure to the compositions according to Handrub procedure PN-EN 12791:2005.
Bacteria kills of Escherichia coli, Pseudomonas aeruginosa, Staphylococcus areus, and Enterococcus hirae were measured immediately after the application and again 3 hours after application.

On to `CCCO` [propan-1-ol, 60% v/v, propan-1-ol], for which the “reduction of the natural bacteria” value is 2.16 log in the experiment on natural bacteria (3 hours after application) and 2.48 log with natural bacteria (immediately after application).

For the molecule `CC(C)O` [2-propanol 60% v/v, 2-propanol], the “reduction of the presence of the transient bacteria” value in the experiment on Escherichia coli was 4 log.

These data come from patent US12605403B2, “Compositions and methods for treating transient biofilms” (WIAB WATER INNOVATION AB, priority 2016, dated 2026).
